Data from patent publication US9914737B2, “Triazolopyrimidinone or triazolopyridinone derivatives, and use thereof” (ST PHARM CO., LTD., priority 2014, dated 2018).

Biological target: T1, tankyrase 1 (Homo sapiens, UniProt O95271)
T1 construct: purchased Trevigen 4700-096-K
T1 sequence (O95271 1-1327): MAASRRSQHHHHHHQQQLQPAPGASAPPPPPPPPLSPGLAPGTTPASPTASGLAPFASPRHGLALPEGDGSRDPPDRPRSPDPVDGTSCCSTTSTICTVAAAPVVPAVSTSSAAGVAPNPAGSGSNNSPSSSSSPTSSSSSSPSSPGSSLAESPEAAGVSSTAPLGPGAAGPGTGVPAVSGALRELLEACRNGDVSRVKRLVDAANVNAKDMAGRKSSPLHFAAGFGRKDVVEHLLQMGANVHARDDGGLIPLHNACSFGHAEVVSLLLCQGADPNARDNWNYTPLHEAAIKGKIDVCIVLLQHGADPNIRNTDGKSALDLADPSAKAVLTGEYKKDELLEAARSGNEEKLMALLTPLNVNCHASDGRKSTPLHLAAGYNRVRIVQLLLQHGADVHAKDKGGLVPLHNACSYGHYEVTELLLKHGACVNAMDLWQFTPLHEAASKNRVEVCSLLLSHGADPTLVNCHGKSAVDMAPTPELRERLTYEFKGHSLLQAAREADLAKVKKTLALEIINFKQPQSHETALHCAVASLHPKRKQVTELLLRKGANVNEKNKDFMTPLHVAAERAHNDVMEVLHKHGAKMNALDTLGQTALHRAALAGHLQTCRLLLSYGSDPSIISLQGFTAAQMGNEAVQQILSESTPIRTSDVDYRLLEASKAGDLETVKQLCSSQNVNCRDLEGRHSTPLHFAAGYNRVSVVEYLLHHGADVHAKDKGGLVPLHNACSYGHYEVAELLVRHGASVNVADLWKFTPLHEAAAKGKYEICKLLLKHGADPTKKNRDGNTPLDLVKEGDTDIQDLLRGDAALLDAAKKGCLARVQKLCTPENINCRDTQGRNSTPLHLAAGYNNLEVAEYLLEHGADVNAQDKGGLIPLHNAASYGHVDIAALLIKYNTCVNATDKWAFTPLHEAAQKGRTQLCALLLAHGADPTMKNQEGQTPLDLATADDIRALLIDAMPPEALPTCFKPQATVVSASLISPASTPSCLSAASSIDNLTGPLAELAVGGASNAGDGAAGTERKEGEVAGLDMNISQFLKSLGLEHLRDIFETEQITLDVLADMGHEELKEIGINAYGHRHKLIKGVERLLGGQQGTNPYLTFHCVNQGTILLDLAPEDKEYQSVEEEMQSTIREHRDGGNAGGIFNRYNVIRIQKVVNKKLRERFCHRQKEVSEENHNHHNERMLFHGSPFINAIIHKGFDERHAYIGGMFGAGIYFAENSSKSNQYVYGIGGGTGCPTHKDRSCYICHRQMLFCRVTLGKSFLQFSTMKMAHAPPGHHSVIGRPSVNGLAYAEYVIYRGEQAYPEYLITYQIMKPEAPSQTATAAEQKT
Assay: Analysis of activity of tankyrase 1 (Trevigen kit, ELISA absorbance at 450 nm)
Assay type: biochemical
Conditions: not given
Description: Activities of novel compounds synthesized according to Examples 1 to 72 against tankyrase 1 were analyzed using a Trevigen kit (Cat. No. 4700-096-K). Poly PAR histone protein-coated 96-well plate, anti-PAR monoclonal antibody and goat anti-mouse IgG-HRP were used for measurement of absorbance by ELISA method. Specifically, 20× I-PAR assay buffer was diluted to 1× by adding water, and 50 μL of the diluted buffer was added to each well of the 96-well plate followed by reacting at rt for 30 min. Then, the supernatant was completely removed from each well and 10 μL of 1× I-PAR assay buffer and 15 μL of assay substrate were added to each well along with 1 μL of a 50× solution of inhibitors to be tested, which were the compounds obtained in the Examples 1 to 72. 10 mUnits/μL of tankyrase 1 enzyme was diluted 50-fold with 1× I-PAR assay buffer and 25 μL of the diluted enzyme was added to each well and reacted while stirring at rt for 30 min. One without any compound of the present invention was used as a positive control and another containing 1× I-PAR assay buffer with the same volume instead of tankyrase 1 enzyme was used as a negative control. Upon completion of the reaction, 200 μL of PBSX, which was prepared by adding 0.1% triton X-100 to PBS, was added and removed and this washing process was repeated twice. Washing was repeated twice more using PBS in the same manner. 5× antibody diluent was diluted with distilled water to 1× concentration, 50 μL of the diluted goat anti-mouse IgG-HRP to 1/2000 was added to each well and reacted while stirring at rt for 30 min. Washes were carried out twice using PBSX and PBS, respectively. After adding 50 μL of TACS-sapphire to each well of the plate, the plate was blocked from light to react for 10 min to 15 min and the color of the reaction solution turned blue. To stop the reaction, 50 μL of 0.2N HCl was added to turn the solution yellow. Finally, the absorbance of the resulting solution was measured at 450 nm.

Row | IC50 [nM] | Compound
1 | 22.7 | COCCOc1cc(F)c(N2CCN(c3cc4c(nnn4C)c(=O)[nH]3)CC2)c(F)c1 [compound 53, 6-(4-(2,6-Difluoro-4-(2-methoxyethoxy)phenyl)piperazin-1-yl)-1-methyl-1H[1,2,3]triazolo[4,5-c]pyridin-4(5H)-one]

Same assay, conditions: tankyrase 1 enzyme, Trevigen kit Cat. No. 4700-096-K, 30 min at rt; read-out: TNKS1 (IC50)

Row | Compound | IC50 [nM]
2 | COCCOc1cc(F)c(C2(O)CCN(c3nc4c(nnn4C)c(=O)[nH]3)CC2)c(F)c1 [compound 25, 5-(4-(2,6-Difluoro-4-(2-methoxyethoxy)phenyl)-4-hydroxypiperidin-1-yl)-3-methyl-3H-[1,2,3]triazolo[4,5-d]pyrimidin-7(6H)-one] | 33.1
3 | Cn1nnc2c(=O)[nH]c(N3CCC(c4nnn[nH]4)CC3)nc21 [compound 26, 5-(4-(1H-tetrazol-5-yl)piperidin-1-yl)-3-methyl-3H-[1,2,3]triazolo[4,5-d]pyrimidin-7(6H)-one] | 411
4 | CN1CCN(CCOc2cc(F)c(N3CCN(c4nc5c(nnn5C)c(=O)[nH]4)CC3)c(F)c2)CC1 [compound 32, 5-(4-(2,6-Difluoro-4-(2-(4-methylpiperazin-1-yl)ethoxy)phenyl)piperazin-1-yl)-3-methyl-3H-[1,2,3]triazolo[4,5-d]pyrimidin-7(6H)-one] | 120
5 | Cn1nnc2c(=O)[nH]c(N3CCN(c4c(F)cc(OCCCN5CCCCC5)cc4F)CC3)nc21 [compound 33, 5-(4-(2,6-Difluoro-4-(3-(piperidin-1-yl)propoxy)phenyl)piperazin-1-yl)-3-methyl-3H-[1,2,3]triazolo[4,5-d]pyrimidin-7(6H)-one] | 51.3
6 | COCCN(CCOC)c1cc(F)c(N2CCN(c3nc4c(nnn4C)c(=O)[nH]3)CC2)c(F)c1 [compound 34, 5-(4-(4-(Bis(2-methoxyethyl)amino)-2,6-difluorophenyl)piperazin-1-yl)-3-methyl-3H-[1,2,3]triazolo[4,5-d]pyrimidin-7(6H)-one] | 67.7
7 | Cn1nnc2c(=O)[nH]c(N3CCN(c4c(F)cc(OCC(=O)N5CCCCC5)cc4F)CC3)nc21 [compound 35, 5-(4-(2,6-Difluoro-4-(2-oxo-2-(piperidin-1-yl)ethoxy)phenyl)piperazin-1-yl)-3-methyl-3H-[1,2,3]triazolo[4,5-d]pyrimidin-7(6H)-one] | 48.7
8 | Cn1nnc2c(=O)[nH]c(N3CCN(c4c(F)cc(OCC(=O)N5CCCC5)cc4F)CC3)nc21 [compound 36, 5-(4-(2,6-Difluoro-4-(2-oxo-2-(pyrrolidin-1-yl)ethoxy)phenyl)piperazin-1-yl)-3-methyl-3H-[1,2,3]triazolo[4,5-d]pyrimidin-7(6H)-one] | 39.6
9 | Cn1nnc2c(=O)[nH]c(N3CCN(c4c(F)cc(OCCN)cc4F)CC3)nc21 [compound 37, 5-(4-(4-(2-Aminoethoxy)-2,6-difluorophenyl)piperazin-1-yl)-3-methyl-3H-[1,2,3]triazolo[4,5-d]pyrimidin-7(6H)-one] | 28.1
10 | CN1CCN(CCOc2cc(F)c(N3CCN(c4nc5c(nnn5C)c(=O)[nH]4)CC3)c(F)c2)C(=O)C1 [compound 38, 5-(4-(2,6-Difluoro-4-(2-(4-methyl-2-oxopiperazin-1-yl)ethoxy)phenyl)piperazin-1-yl)-3-methyl-3H-[1,2,3]triazolo[4,5-d]pyrimidin-7(6H)-one] | 43
11 | Cn1nnc2c(=O)[nH]c(N3CCN(c4c(F)cc(OCCN5CCC(N)CC5)cc4F)CC3)nc21 [compound 39, 5-(4-(4-(2-(4-Aminopiperidin-1-yl)ethoxy)-2,6-difluorophenyl)piperazin-1-yl)-3-methyl-3H-[1,2,3]triazolo[4,5-d]pyrimidin-7(6H)-one] | 22.7
12 | COCCCc1cc(F)c(N2CCN(c3nc4c(nnn4C)c(=O)[nH]3)CC2)c(F)c1 [compound 40, 5-(4-(2,6-Difluoro-4-(3-methoxypropyl)phenyl)piperazin-1-yl)-3-methyl-3H-[1,2,3]triazolo[4,5-d]pyrimidin-7(6H)-one] | 93.1
13 | Cn1nnc2c(=O)[nH]c(N3CCN(c4c(F)cc(OCCN5CCC(O)C5)cc4F)CC3)nc21 (stereo not drawn) [compound 41, 5-(4-(2,6-Difluoro-4-(2-(3-hydroxypyrrolidin-1-yl)ethoxy)phenyl)piperazin-1-yl)-3-methyl-3H-[1,2,3]triazolo[4,5-d]pyrimidin-7(6H)-one] | 71.3
14 | Cn1nnc2c(=O)[nH]c(N3CCN(c4c(F)cc(OCCN5CCC(O)CC5)cc4F)CC3)nc21 [compound 42, 5-(4-(2,6-Difluoro-4-(2-(4-hydroxypiperidin-1-yl)ethoxy)phenyl)piperazin-1-yl)-3-methyl-3H-[1,2,3]triazolo[4,5-d]pyrimidin-7(6H)-one] | 51.4

Next, values leading:

Row | IC50 [nM] | Compound
15 | 50.9 | Cn1nnc2c(=O)[nH]c(N3CCN(c4c(F)cc(OCCN5CCC(C)(O)CC5)cc4F)CC3)nc21 [compound 43, 5-(4-(2,6-Difluoro-4-(2-(4-hydroxy-4-methylpiperidin-1-yl)ethoxy)phenyl)piperazin-1-yl)-3-methyl-3H-[1,2,3]triazolo[4,5-d]pyrimidin-7(6H)-one]
16 | 52.9 | COCCOc1cc(F)c(C2=CCN(c3nc4c(nnn4C)c(=O)[nH]3)CC2)c(F)c1 [compound 44, 5-(4-(2,6-Difluoro-4-(2-methoxyethoxy)phenyl)-5,6-dihydropyridin-1(2H)-yl)-3-methyl-3H-[1,2,3]triazolo[4,5-d]pyrimidin-7(6H)-one]
17 | 37.6 | COCCOc1cc(F)c(C2CCN(c3nc4c(nnn4C)c(=O)[nH]3)CC2)c(F)c1 [compound 45, 5-(4-(2,6-Difluoro-4-(2-methoxyethoxy)phenyl)piperidin-1-yl)-3-methyl-3H-[1,2,3]triazolo[4,5-d]pyrimidin-7(6H)-one]
18 | 11 | Cn1nnc2c(=O)[nH]c(N3CCN(c4c(F)cc(OCCN5CCOCC5)cc4F)CC3)cc21 [compound 54, 6-(4-(2,6-Difluoro-4-(2-morpholinoethoxy)phenyl)piperazin-1-yl)-1-methyl-1H-[1,2,3]triazolo[4,5-c]pyridin-4(5H)-one]
19 | 29.3 | Cn1nnc2c(=O)[nH]c(N3CCN(c4c(F)cc(OCCN5CCCCC5)cc4F)CC3)cc21 [compound 55, 6-(4-(2,6-Difluoro-4-(2-(piperidin-1-yl)ethoxy)phenyl)piperazin-1-yl)-1-methyl-1H-[1,2,3]triazolo[4,5-c]pyridin-4(5H)-one]
20 | 27.5 | CN(C)CCOc1cc(F)c(N2CCN(c3cc4c(nnn4C)c(=O)[nH]3)CC2)c(F)c1 [compound 56, 6-(4-(4-(2-(Dimethylamino)ethoxy)-2,6-difluorophenyl)piperazin-1-yl)-1-methyl-1H-[1,2,3]triazolo[4,5-c]pyridin-4(5H)-one]
21 | 7.98 | Cn1nnc2c(=O)[nH]c(N3CCN(c4c(F)cc(OCCO)cc4F)CC3)cc21 [compound 57, 6-(4-(2,6-Difluoro-4-(2-hydroxyethoxy)phenyl)piperazin-1-yl)-1-methyl-1H[1,2,3]triazolo[4,5-c]pyridin-4(5H)-one]
